Measurements taken from PubChem BioAssay AID687005 (Broad Institute, 2013).
Records with an inconclusive call do not appear. The source made the active and inactive calls.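 How the source made its calls: active means Compounds that reduce signal, with fitted half-maximal dose at or under twice the top valid tested dose; inconclusive means Poor fit, or flat curve losing 30 to 70% of signal; inactive means Potency past limit, flat within 30%, or opposite direction.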

test: viability loss in HEK293T cells – cell-based, ATP luminescence, cherry-pick samples, cytotoxicity control, dose response (AID 687005); conditions: HEK293T viability, ATP luminescence (CellTiter-Glo), 48 h; at 23.5 µM (top of the series)

Structure (SMILES)	activity change, negative = cytotoxicity
C/C=C/c1ccc([C@H]2[C@@H](C#N)N(S(=O)(=O)c3cccc(F)c3)[C@H]2CO)cc1	7.73% (inactive)
Cc1noc(C)c1S(=O)(=O)Nc1ccc2c(c1)CC(=O)N([C@H](C)CO)C[C@H](C)[C@H](CN(C)S(=O)(=O)c1cccs1)O2	-4.72% (inactive)
C[C@@H]1CN([C@@H](C)CO)C(=O)CCCn2nncc2CO[C@H]1CN(C)C(=O)Oc1cccc2ccccc12	17.9% (inactive)
C[C@@H]1CCCCO[C@@H](CN(C)Cc2ccncc2)[C@@H](C)CN([C@@H](C)CO)C(=O)c2cc(NC(=O)c3ccncc3)ccc2O1	46.4% (inactive)
COC(=O)C1=C(C)N(Cc2ccccc2)C(=S)N[C@H]1c1ccc(Br)cc1	13.4% (inactive)
CNC(=O)C[C@H]1CC[C@H]2[C@H](COc3ccc(NC(=O)c4cc(C)on4)cc3C(=O)N2C)O1	-23.4% (inactive)
C[C@H](CO)N1C[C@H](C)[C@@H](CN(C)S(=O)(=O)c2ccc(Cl)cc2)Oc2c(NS(=O)(=O)c3ccc(F)cc3)cccc2C1=O	-1.86% (inactive)
COc1cccc(S(=O)(=O)Nc2ccc3c(c2)[C@H]2C[C@@H](CC(=O)NC4CCCCC4)O[C@@H](CO)[C@H]2O3)c1	-20.2% (inactive)
COc1cccc(C#Cc2cnc3c(c2)C(=O)N([C@H](C)CO)C[C@@H](C)[C@@H](CN(C)C(=O)C2CCOCC2)O3)c1	6.67% (inactive)
CN1c2ccc(-c3ccc(F)cc3)cc2[C@H]2[C@H](CCN2S(=O)(=O)c2cccc(F)c2)[C@H]1CO	-32.1% (inactive)

same assay, conditions: HEK293T viability, ATP luminescence (CellTiter-Glo), 48 h; at 26 µM (top of the series)

Structure (SMILES)	activity change, negative = cytotoxicity
COCCNC(=O)C[C@@H]1CC[C@@H]2[C@H](COC[C@@H](O)CN2S(=O)(=O)c2ccccc2C)O1	31.5% (inactive)
CN1C(=O)c2cc(NC(=O)NC3CCCC3)ccc2OC[C@H]2O[C@@H](CC(=O)NC3CCC3)CC[C@@H]21	0.295% (inactive)
Cc1cc(C(=O)NC(=S)Nc2ccccc2N2CCOCC2)ccc1[N+](=O)[O-]	-23.2% (inactive)
COc1ccccc1-c1ccc2c(c1)O[C@@H](CN(C)C(=O)c1cccnc1)[C@H](C)CN([C@@H](C)CO)S2(=O)=O	-38% (inactive)
O=C(NC1CCCCC1)N[C@H]1C=C[C@@H](CC(=O)N2CCOCC2)O[C@@H]1CO	17.4% (inactive)
O=C([C@@H]1[C@@H](CO)[C@@H]2Cn3c(cccc3=O)[C@H]1N2Cc1cccc(Cl)c1)N1CCOCC1	-9.53% (inactive)
COC(=O)C1=C(C)N(Cc2ccc(Cl)cc2)C(=S)NC1c1ccc(F)cc1 (stereo not given)	-32.8% (inactive)
CC(C)NC(=O)NCC[C@H]1CC[C@H](NC(=O)CN(C)C)[C@H](CO)O1	7.79% (inactive)
CCCN1C[C@H](C)[C@@H](OC)CN(C)C(=O)c2cc(NC(=O)c3cccc(F)c3)ccc2OC[C@H]1C	10.2% (inactive)
C[C@H]1CN([C@@H](C)CO)C(=O)Cc2cc(NC(=O)Nc3ccccc3)ccc2O[C@H]1CN(C)C(=O)Nc1ccc2c(c1)OCO2	-2.2% (inactive)
Cc1noc(C)c1S(=O)(=O)N(C)C[C@H]1OCCCC[C@@H](C)Oc2ccc(NC(=O)CCCCCC(=O)Nc3ccccc3N)cc2C(=O)N([C@@H](C)CO)C[C@@H]1C	-1.73% (inactive)
O=C(NC[C@H]1[C@@H](c2ccccc2)[C@@H](CO)N1C(=O)C1CCC1)NC1CCCC1	-38.9% (inactive)
C[C@@H](NC(=O)C[C@H]1CC[C@@H](NC(=O)Cc2ccccn2)[C@@H](CO)O1)c1ccccc1	-16.9% (inactive)
Cc1noc(C)c1S(=O)(=O)Nc1ccc2c(c1)C(=O)N([C@@H](C)CO)C[C@H](C)[C@@H](CN(C)Cc1ccc3c(c1)OCO3)OCCCC[C@@H](C)O2	45.4% (inactive)
COc1ccccc1CNC(=O)C[C@@H]1CC[C@@H]2[C@H](COC[C@@H](O)CN2Cc2ccccc2)O1	-10.7% (inactive)
COc1ccccc1CNC(=O)C[C@@H]1C[C@@H]2c3cc(NC(=O)Nc4ccccc4F)ccc3O[C@@H]2[C@H](CO)O1	15.8% (inactive)
CC(C)(C)SCCNC(=O)CN(c1ccccc1)S(=O)(=O)c1ccc(F)cc1	-6.34% (inactive)
C[C@@H]1CN([C@@H](C)CO)C(=O)c2cc(-c3cncnc3)cnc2O[C@H]1CN(C)C(=O)Cc1ccccc1	-0.143% (inactive)
CCNC(=O)C[C@H]1CC[C@H](NC(=O)NC2CCCCC2)[C@@H](CO)O1	-1.55% (inactive)
C[C@@H]1CN([C@@H](C)CO)C(=O)c2cc(-c3ccc(C#N)cc3)cnc2O[C@@H]1CN(C)C(=O)Nc1ccc(F)cc1	5.67% (inactive)
CO[C@H]1CN(C)C(=O)c2cc(NC(=O)c3ccccc3F)ccc2OC[C@H](C)N(C(C)=O)C[C@H]1C	-16.7% (inactive)
CNC[C@H]1OCCCC[C@H](C)Oc2ccc(NC(=O)Cc3ccccc3)cc2C(=O)N([C@H](C)CO)C[C@@H]1C	-17.1% (inactive)
CC(C)CC#Cc1cnc2c(c1)C(=O)N([C@H](C)CO)C[C@H](C)[C@@H](CN(C)Cc1cccc(F)c1)O2	-9.35% (inactive)
COc1ccc(CN(C)C[C@H]2Oc3ccc(NS(C)(=O)=O)cc3CC(=O)N([C@@H](C)CO)C[C@H]2C)cc1	-1.35% (inactive)
COC(=O)N(C)C[C@H]1OCc2cn(nn2)CCCC(=O)N([C@@H](C)CO)C[C@@H]1C	-1.3% (inactive)
C[C@@H]1CN([C@H](C)CO)C(=O)c2cc(N(C)C)ccc2O[C@@H]1CN(C)C(=O)Nc1ccc(C(F)(F)F)cc1	-77.2% (inactive)

Structure (SMILES)	activity change, negative = cytotoxicity
O=S1(=O)CCC(N=Cc2cc(Br)ccc2O)C1 (stereo not given)	37.7% (inactive)
Cc1cc(C)c(NC(=O)C2CCCCN2C)c(C)c1 (stereo not given)	10.1% (inactive)
Cc1ccc(C)c(NC(=O)C2(C)CCN2C(=O)C(C)C)c1 (stereo not given)	-19.7% (inactive)
CC(=O)NC[C@H]1[C@@H](c2ccc(C3=CCCC3)cc2)[C@@H](CO)N1C(=O)NC(C)C	-31.1% (inactive)
CCNC(=O)C[C@H]1CC[C@@H](NC(=O)NC2CCCCC2)[C@H](CO)O1	-2.42% (inactive)
CO[C@@H]1CN(C)C(=O)c2cc(NS(=O)(=O)c3cccc(C)c3)ccc2OC[C@@H](C)NC[C@H]1C	4.92% (inactive)
O=C(c1ccco1)N1N=C(c2cccs2)CC1c1cc([N+](=O)[O-])ccc1O (stereo not given)	37.4% (inactive)
CNC(=O)C[C@@H]1CC[C@@H]2[C@H](COC[C@@H](O)CN2C(=O)Nc2ccc3c(c2)OCO3)O1	25% (inactive)
C[C@H](CO)N1C[C@H](C)[C@@H](CN(C)Cc2ccc(Oc3ccccc3)cc2)Oc2ccc(NS(=O)(=O)c3cn(C)cn3)cc2CC1=O	-30.9% (inactive)
O=C(NCC[C@H]1CC[C@@H](NS(=O)(=O)c2ccc(F)cc2)[C@H](CO)O1)c1ccc2c(c1)OCO2	1.86% (inactive)
C[C@H]1CCCCO[C@@H](CN(C)C(=O)c2ccccc2)[C@@H](C)CN([C@@H](C)CO)C(=O)c2cc(NC(=O)c3ccncc3)ccc2O1	-3.03% (inactive)
CCC(C)(C(=O)NC1CCCCC1)N(C(=O)C1CCC(=O)N1)c1ccccc1 (stereo not given)	0.147% (inactive)
C[C@H]1CN([C@@H](C)CO)C(=O)c2cc(Br)cnc2O[C@@H]1CN(C)Cc1ccccn1	22.1% (inactive)
O=C(C[C@H]1CC[C@H]2[C@@H](COC[C@@H](O)CN2C(=O)Nc2ccc(Cl)cc2)O1)N1CCCCC1	25.8% (inactive)
Cc1cccc(C)c1NC(=O)C(C)N1CCCC1 (stereo not given)	-44.2% (inactive)
C[C@@H]1CN([C@@H](C)CO)C(=O)CCCn2cc(nn2)CO[C@@H]1CN(C)C(=O)NC1CCCC1	5.64% (inactive)
Cc1cc(C)cc(OCC(=O)NC(C)c2ccccc2)c1 (stereo not given)	14.9% (inactive)
Cc1noc(C)c1NC(=O)Nc1cccc2c1O[C@@H](CN(C)S(=O)(=O)c1cn(C)cn1)[C@@H](C)CN([C@@H](C)CO)C2=O	-3.21% (inactive)
COc1cccc(-c2ccc3c(c2)[C@H]2[C@H](CCN2C(=O)Cc2ccncc2)[C@H](CO)N3C)c1	125% (inactive)
C[C@H]1CN([C@@H](C)CO)C(=O)c2cc(-c3ccccc3)cnc2O[C@@H]1CN(C)C(=O)c1ccccn1	19% (inactive)
CC(C)NC(=O)Nc1cccc2c1O[C@@H](CN(C)C(=O)Nc1ccccc1)[C@@H](C)CN([C@@H](C)CO)C2=O	-13.9% (inactive)
CC(C)NC(=O)N(C)C[C@@H]1OCCCC[C@@H](C)Oc2ccc(NC(=O)c3ccccc3)cc2C(=O)N([C@H](C)CO)C[C@@H]1C	-7.94% (inactive)
COc1ccc(N(CC(=O)NCCSCc2ccc(C)cc2)S(=O)(=O)c2ccccc2)cc1	-65.3% (inactive)
C[C@H](CO)N1C[C@H](C)[C@@H](CN(C)S(=O)(=O)c2cn(C)cn2)Oc2c(NC(=O)Nc3ccccc3)cccc2C1=O	1.19% (inactive)
CO[C@H]1CN(C)C(=O)c2ccc(NC(=O)NC(C)C)cc2OC[C@@H](C)NC[C@H]1C	-16.2% (inactive)
COc1ccc(-n2ncc3c(SCC(=O)OC(C)C)ncnc32)cc1	-5.94% (inactive)

same assay, conditions: HEK293T viability, ATP luminescence (CellTiter-Glo), 48 h; at 35 µM (top of the series)

Structure (SMILES)	activity change, negative = cytotoxicity
Cc1cc(C)c(N2CCCC2C(=O)Nc2cccc(C(F)(F)F)c2)c(C)c1 (stereo not given)	-7.11% (inactive)

same assay, conditions: HEK293T viability, ATP luminescence (CellTiter-Glo), 48 h; at 42 µM (top of the series)

Structure (SMILES)	activity change, negative = cytotoxicity
Cc1ccc(NC(=O)C2(C)CCN2C(=O)CC2CC2)cc1C (stereo not given)	22.8% (inactive)
CCCC(=O)N1CCCC1(C)C(=O)Nc1ccc(C)c(C)c1 (stereo not given)	-11.7% (inactive)
